# Laboratory results reported in US20220289816A1, “IMMUNOTHERAPY WITH B*07 RESTRICTED PEPTIDES AND COMBINATION OF PEPTIDES AGAINST CANCERS AND RELATED METHODS” (Immatics Biotechnologies GmbH, priority 2018, published 2022).
# Tests used:
# CD8+ T cells = assay: In vitro immunogenicity: in vitro T-cell priming assay with aAPCs loaded with peptide/MHC complexes and anti-CD28 antibody, pMHC multimer readout; type: cell-based, human; conditions: pMHC multimer readout after priming of CD8+ T cells
# Text: In order to obtain information regarding the immunogenicity of the TUMAPs of the present invention, the inventors performed investigations using an in vitro T-cell priming assay based on repeated stimulations of CD8+ T cells with artificial antigen presenting cells (aAPCs) loaded with peptide/MHC complexes and anti-CD28 antibody.
# In order to perform in vitro stimulations by artificial antigen presenting cells loaded with peptide-MHC complex (pMHC) and anti-CD28 antibody, the inventors first isolated CD8+ T cells from fresh HLA-B*07 leukapheresis products via positive selection using CD8 microbeads (Miltenyi Biotec, Bergisch-Gladbach, Germany) of healthy donors obtained from the University clinics Mannheim, Germany, after informed consent.
# PBMCs and isolated CD8+ lymphocytes were incubated in T-cell medium (TCM) until use consisting of RPMI-Glutamax (Invitrogen, Karlsruhe, Germany) supplemented with 10% heat inactivated human AB serum (PAN-Biotech, Aidenbach, Germany), 100 U/ml Penicillin/100 μg/ml Streptomycin (Cambrex, Cologne, Germany), 1 mM sodium pyruvate (CC Pro, Oberdorla, Germany), 20 μg/ml Gentamycin (Cambrex). 2.5 ng/ml IL-7 (PromoCell, Heidelberg, Germany) and 10 U/ml IL-2 (Novartis Pharma, Nürnberg, Germany) were also added to the TCM at this step.
# Generation of pMHC/anti-CD28 coated beads, T-cell stimulations and readout was performed in a highly defined in vitro system using four different pMHC molecules per stimulation condition and 8 different pMHC molecules per readout condition.
# The purified co-stimulatory mouse IgG2a anti human CD28 Ab 9.3 (Jung et al., 1987) was chemically biotinylated using Sulfo-N-hydroxysuccinimidobiotin as recommended by the manufacturer (Perbio, Bonn, Germany). Beads used were 5.6 μm diameter streptavidin coated polystyrene particles (Bangs Laboratories, Illinois, USA).
# 800.000 beads/200 μl were coated in 96-well plates in the presence of 4×12.5 ng different biotin-pMHC, washed and 600 ng biotin anti-CD28 were added subsequently in a volume of 200 μl. Stimulations were initiated in 96-well plates by co-incubating 1×10^6 CD8+ T cells with 2×10^5 washed coated beads in 200 μl TCM supplemented with 5 ng/ml IL-12 (PromoCell) for 3 days at 37° C. Half of the medium was then exchanged by fresh TCM supplemented with 80 U/ml IL-2 and incubating was continued for four days at 37° C. This stimulation cycle was performed for a total of three times. For the pMHC multimer readout using 8 different pMHC molecules per condition, a two-dimensional combinatorial coding approach was used as previously described (Andersen et al., 2012) with minor modifications encompassing coupling to five different fluorochromes. Finally, multimeric analyses were performed by staining the cells with Live/dead near IR dye (Invitrogen, Karlsruhe, Germany), CD8-FITC antibody clone SK1 (BD, Heidelberg, Germany) and fluorescent pMHC multimers. For analysis, a BD LSRII SORP cytometer equipped with appropriate lasers and filters was used. Peptide specific cells were calculated as percentage of total CD8+ cells. Evaluation of multimeric analysis was done using the FlowJo software (Tree Star, Oregon, USA). In vitro priming of specific multimer+CD8+ lymphocytes was detected by comparing to negative control stimulations.
# HLA-B*07 = HLA-B*07 (Homo sapiens, UniProt P01889); assay: MHC binding assay (UV-ligand exchange, ELISA of stabilized MHC complexes); conditions: peptide exchange yield on HLA-B*07, UV-ligand exchange
# Procedure, shortened: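 Peptide–MHC complexes were made by UV-ligand exchange, in which a UV-cleavable peptide is replaced by the test peptide. Exchange yield was measured by ELISA of stabilized complexes on streptavidin-coated plates, using HRP anti-β2m detection (1 h, 37 °C), TMB substrate and absorbance at 450 nm.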
Peptide exchange (HLA-B*07),Substance,Wells positive [%] (CD8+ T cells; Table 10b),Wells positive [%] (CD8+ T cells; Table 10a)
++++ (>75% = ++++),1 (RPRSLQCVSL; listed as Homo sapiens) [compound 1],+ (<20% = +),
++++ (>75% = ++++),3 (MPYVVLTAL; listed as Homo sapiens) [compound 3],+ (<20% = +),
+++ (>50 = +++),4 (GPKKFIVKL; listed as Homo sapiens) [compound 4],+ (<20% = +),
++++ (>75% = ++++),5 (LPSLSHCSQL; listed as Homo sapiens) [compound 5],++ (20%-49% = ++),
++++ (>75% = ++++),6 (LPLNSSTSL; listed as Homo sapiens) [compound 6],+ (<20% = +),
++++ (>75% = ++++),9 (RPDSRLLEL; listed as Homo sapiens) [compound 9],+++ (50%-69% = +++),
++++ (>75% = ++++),12 (LPNTGRIGQLL; listed as Homo sapiens) [compound 12],++ (20%-49% = ++),
++++ (>75% = ++++),17 (SPAAPLSPASSL; listed as Homo sapiens) [compound 17],+ (<20% = +),
++++ (>75% = ++++),21 (APSRLLEL; listed as Homo sapiens) [compound 21],+ (<20% = +),
+++ (>50 = +++),23 (VPRPTSTVGL; listed as Homo sapiens) [compound 23],++ (20%-49% = ++),
++++ (>75% = ++++),24 (VPRPTSTVGLFL; listed as Homo sapiens) [compound 24],+ (<20% = +),
++++ (>75% = ++++),26 (SPSFSSTLLSL; listed as Homo sapiens) [compound 26],+ (<20% = +),
+++ (>50 = +++),33 (LPRGLSPARQL; listed as Homo sapiens) [compound 33],++ (20%-49% = ++),
++++ (>75% = ++++),38 (RPSFPNLTSF; listed as Homo sapiens) [compound 38],+ (<20% = +),
+++ (>50 = +++),45 (TRPWSGPYIL; listed as Homo sapiens) [compound 45],+ (<20% = +),
+++ (>50 = +++),48 (RPRYSIGL; listed as Homo sapiens) [compound 48],+ (<20% = +),
+++ (>50 = +++),49 (APEKARAFL; listed as Homo sapiens) [compound 49],+ (<20% = +),
++++ (>75% = ++++),51 (SPVFYVQTL; listed as Homo sapiens) [compound 51],+ (<20% = +),
++++ (>75% = ++++),53 (SPRIPFSTF; listed as Homo sapiens) [compound 53],+ (<20% = +),
++++ (>75% = ++++),56 (LPALLRSGLTL; listed as Homo sapiens) [compound 56],+++ (50%-69% = +++),
++++ (>75% = ++++),59 (KPRTIYSSL; listed as Homo sapiens) [compound 59],+ (<20% = +),
++++ (>75% = ++++),61 (LPRIPFSTF; listed as Homo sapiens) [compound 61],++ (20%-49% = ++),
++++ (>75% = ++++),64 (VPRPIFSQLYL; listed as Homo sapiens) [compound 64],+++ (50%-69% = +++),
++++ (>75% = ++++),68 (FPNEVSVVL; listed as Homo sapiens) [compound 68],++ (20%-49% = ++),
,388 (SPSVSQLSVL; listed as Homo sapiens) [compound 388],,++++ (>=70% = ++++)
,389 (APLPRPGAVL; listed as Homo sapiens) [compound 389],,++ (20%-49% = ++)
,390 (SPRMSGLLSQT; listed as Homo sapiens) [compound 390],,+++ (50%-69% = +++)

Peptide exchange (HLA-B*07),Substance,Wells positive [%] (CD8+ T cells; Table 10b),Wells positive [%] (CD8+ T cells; Table 10a)
,391 (APRPASSL; listed as Homo sapiens) [compound 391],,+ (<20% = +)
,392 (GPQPWHAAL; listed as Homo sapiens) [compound 392],,++ (20%-49% = ++)
,393 (APAAWLRSA; listed as Homo sapiens) [compound 393],,+++ (50%-69% = +++)
,396 (VPDVAQFVL; listed as Homo sapiens) [compound 396],,++ (20%-49% = ++)
,398 (SPASRSISL; listed as Homo sapiens) [compound 398],,+ (<20% = +)
,399 (NPFYPEVEL; listed as Homo sapiens) [compound 399],,+ (<20% = +)
,405 (LPFDGPGGIL; listed as Homo sapiens) [compound 405],,++++ (>=70% = ++++)
,406 (LPDGSRVEL; listed as Homo sapiens) [compound 406],,++++ (>=70% = ++++)
,407 (FPRLVGPDF; listed as Homo sapiens) [compound 407],,+++ (50%-69% = +++)
,408 (YPKDIYSSF; listed as Homo sapiens) [compound 408],,++ (20%-49% = ++)
,410 (SPRSWIQVQI; listed as Homo sapiens) [compound 410],,+ (<20% = +)
,411 (IPNWARQDL; listed as Homo sapiens) [compound 411],,++++ (>=70% = ++++)
,414 (KPSESIYSAL; listed as Homo sapiens) [compound 414],,++ (20%-49% = ++)
,415 (LPSDSHFKITF; listed as Homo sapiens) [compound 415],,++ (20%-49% = ++)
,418 (RPMTPTQIGPSL; listed as Homo sapiens) [compound 418],,+ (<20% = +)
,419 (SPMWHVQQL; listed as Homo sapiens) [compound 419],,++++ (>=70% = ++++)
,420 (SPRWLPVSL; listed as Homo sapiens) [compound 420],,++++ (>=70% = ++++)
,423 (SPRVYWLGL; listed as Homo sapiens) [compound 423],,++++ (>=70% = ++++)
,425 (YPRGNHWAVGHL; listed as Homo sapiens) [compound 425],,++ (20%-49% = ++)
,427 (VPSSRILQL; listed as Homo sapiens) [compound 427],,+++ (50%-69% = +++)
,429 (RPRALRDLQL; listed as Homo sapiens) [compound 429],,++ (20%-49% = ++)
,430 (RPRALRDLQLL; listed as Homo sapiens) [compound 430],,+++ (50%-69% = +++)
,433 (IPEPSAQQL; listed as Homo sapiens) [compound 433],,+ (<20% = +)
,437 (FPYPYAERL; listed as Homo sapiens) [compound 437],,+++ (50%-69% = +++)
,440 (YPRTITPGM; listed as Homo sapiens) [compound 440],,+ (<20% = +)
,443 (VPDGVSKVL; listed as Homo sapiens) [compound 443],,+++ (50%-69% = +++)
,445 (RPAATAVISL; listed as Homo sapiens) [compound 445],,+ (<20% = +)
